According to patent publication US20060088886A1, “Topiramate analogs” (priority 2004, published 2006):

Experiments:
[1] = system: anti-topiramate antibodies prepared with immunogen (18); assay: ELISA binding inhibition study (avidity), free topiramate vs coated antigens; parameters: species or system Rabbit; conditions: for Abs Antigen 16 / Abs Antigen 19 / Abs Antigen 20: 405 nm
Procedure: ELISA plates for use in an ELISA assay are prepared in order to study the polyclonal antibody prepared as described in Example 21. As such, various topiramate antigens (16), (19), and (20) are coated on different ELISA plates before being subjected to the anti-topiramate antibody and competing free topiramate. More particularly, the topiramate antigens are diluted in coating buffer, and then added to the wells of ELISA plate. After the ELISA plate is inculcated for 60 min at 37° C., the solvent in the coating buffer is decanted and a blocking buffer is added to the plate. The plate is incubated again for 60 min at 37° C., and the solvent in the blocking buffer is decanted from the plate. The ELISA plate is then stored with the blocking agent in the wells at 2-8° C. for up to 1 week. The avidity of the anti-topiramate antibodies prepared with immunogen (17) for topirainate analogs are determined by a binding inhibition study. As such, samples are prepared in 1 mL of PBS at pH 7.4 with 0.1% BSA. A composition having 30% Bmax titer or 50% Bmax titer is used to divide the obtained titer value into approximately half the titer value. Using 30% Bmax, an antibody titer of 1:10000 is diluted to 1:5000 during the sample preparation stage. About 50 μL of topiramate at different concentrations or calibrator values, (0, 2, 4, 8, 16, 32 μg/ml) are then applied to a plate as prepared in accordance with Example 22. About 50 μL of the diluted antibody is dispensed into the plate, and the compositions in the plate are mixed for 1 min on a horizontal plate shaker. The plate is characterized by a first row not containing topiramate or anti-topiramate antibody, wherein the first row is used as a negative control. A second row not containing topiramate is used as the positive control. The plate is incubated for 60 min, and washed three times with 250 μL of PBS at pH 7.4 with 0.05% tween. About 125 μL of a diluted second antibody conjugate such as antigens (16), (19), or (20), in PBS at pH 7.4 is added to each well of the plate. Titer is determined experimentally by the plate being incubated for 60 min at 37° C. and washed 3 times with 250 μL PBS, pH 7.4 with 0.05% tween. Subsequently, about 125 μL of ABTS substrate is added to each well of the plate and incubated for 20 min. The avidity of the anti-topiramate antibodies prepared with immunogen (18) for topiramate analogs is determined by a binding inhibition study performed with an experimental protocol substantially similar as in Example 24.

[2] = cited from earlier work
[3] = Rabbit No. 5490, topiramate 2 μg/ml
[4] = Rabbit No. 5490, topiramate 4 μg/ml
[5] = Rabbit No. 5490, topiramate 8 μg/ml
[6] = Rabbit No. 5490, topiramate 16 μg/ml
[7] = Rabbit No. 5490, topiramate 32 μg/ml
[8] = Rabbit No. 5495, topiramate 2 μg/ml
[9] = Rabbit No. 5495, topiramate 4 μg/ml
[10] = Rabbit No. 5495, topiramate 8 μg/ml
[11] = Rabbit No. 5495, topiramate 16 μg/ml
[12] = Rabbit No. 5495, topiramate 32 μg/ml
[13] = dose escalation add-on studies, morning trough serum

CC1(C)O[C@@H]2[C@@H](CO[C@@]3(COS(N)(=O)=O)OC(C)(C)O[C@@H]23)O1 [Topiramate, 2,3:4,5-di-O-isopropylidene-beta-D-fructopyranose sulfamate]
B/Bo Antigen 16 [1, 3]: 0.35 | B/Bo Antigen 19 [1, 3]: 0.18 | B/Bo Antigen 20 [1, 3]: 0.63 | Abs Antigen 16 [1, 3]: 0.25 | Abs Antigen 19 [1, 3]: 0.10 | Abs Antigen 20 [1, 3]: 0.25 | B/Bo Antigen 16 [1, 4]: 0.28 | B/Bo Antigen 19 [1, 4]: 0.10 | B/Bo Antigen 20 [1, 4]: 0.60 | Abs Antigen 16 [1, 4]: 0.20 | Abs Antigen 19 [1, 4]: 0.06 | Abs Antigen 20 [1, 4]: 0.24 | B/Bo Antigen 16 [1, 5]: 0.21 | B/Bo Antigen 19 [1, 5]: 0.07 | B/Bo Antigen 20 [1, 5]: 0.55 | Abs Antigen 16 [1, 5]: 0.15 | Abs Antigen 19 [1, 5]: 0.04 | Abs Antigen 20 [1, 5]: 0.22 | B/Bo Antigen 16 [1, 6]: 0.17 | B/Bo Antigen 19 [1, 6]: 0.06 | B/Bo Antigen 20 [1, 6]: 0.53 | Abs Antigen 16 [1, 6]: 0.12 | Abs Antigen 19 [1, 6]: 0.03 | Abs Antigen 20 [1, 6]: 0.21 | B/Bo Antigen 16 [1, 7]: 0.14 | B/Bo Antigen 19 [1, 7]: 0.04 | B/Bo Antigen 20 [1, 7]: 0.50 | Abs Antigen 16 [1, 7]: 0.10 | Abs Antigen 19 [1, 7]: 0.02 | Abs Antigen 20 [1, 7]: 0.20 | B/Bo Antigen 16 [1, 8]: 0.35 | B/Bo Antigen 19 [1, 8]: 0.20 | B/Bo Antigen 20 [1, 8]: 0.53 | Abs Antigen 16 [1, 8]: 0.25 | Abs Antigen 19 [1, 8]: 0.13 | Abs Antigen 20 [1, 8]: 0.18 | B/Bo Antigen 16 [1, 9]: 0.39 | B/Bo Antigen 19 [1, 9]: 0.12 | B/Bo Antigen 20 [1, 9]: 0.50 | Abs Antigen 16 [1, 9]: 0.28 | Abs Antigen 19 [1, 9]: 0.08 | Abs Antigen 20 [1, 9]: 0.17 | B/Bo Antigen 16 [1, 10]: 0.21 | B/Bo Antigen 19 [1, 10]: 0.08 | B/Bo Antigen 20 [1, 10]: 0.47 | Abs Antigen 16 [1, 10]: 0.15 | Abs Antigen 19 [1, 10]: 0.05 | Abs Antigen 20 [1, 10]: 0.16 | B/Bo Antigen 16 [1, 11]: 0.17 | B/Bo Antigen 19 [1, 11]: 0.06 | B/Bo Antigen 20 [1, 11]: 0.41 | Abs Antigen 16 [1, 11]: 0.12 | Abs Antigen 19 [1, 11]: 0.04 | Abs Antigen 20 [1, 11]: 0.14 | B/Bo Antigen 16 [1, 12]: 0.14 | B/Bo Antigen 19 [1, 12]: 0.03 | B/Bo Antigen 20 [1, 12]: 0.32 | Abs Antigen 16 [1, 12]: 0.10 | Abs Antigen 19 [1, 12]: 0.02 | Abs Antigen 20 [1, 12]: 0.11 | serum concentration at which a reduction in seizure control was seen [2, 13]: greater than 75 μmol/L | serum concentration with significant increase in side effects [2, 13]: > 60 µM | systemic topiramate concentrations ([2]; patients receiving higher doses, up to 2000 mg): ≤ 80 µmol/L
